# How the values were obtained:
# redroot pigweed = test: Test A pre-/postemergence greenhouse test; assay type: in vivo, Amaranthus retroflexus; conditions: for Pigweed plant response rating: 0 to 100 scale; for Plant response rating, Pigweed: 0 to 100 scale where 0 is no effect and 100 is complete control
# Summary of the method: (§1)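 Each test compound, dissolved in a non-phytotoxic solvent mixture with surfactant, was sprayed directly onto seeded soil (loam/sand blend) and, at the same moment, onto seedlings carrying one to two leaves. Around ten greenhouse days later, plants were rated visually for injury relative to untreated controls.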
# giant foxtail = test: Test A pre-/postemergence greenhouse test; assay type: in vivo, Setaria faberi; conditions: for Foxtail, Giant plant response rating: 0 to 100 scale; for Plant response rating, Foxtail, Giant: 0 to 100 scale where 0 is no effect and 100 is complete control
# Summary of the method: as §1
# [1] = system: common (oilseed) sunflower; test: Test C pre-/postemergence test; assay type: in vivo, Helianthus annuus; conditions: for Plant response rating, Sunflower: 31 g ai/ha, scale 0 to 100 (0 no effect, 100 complete control)
# Summary of the method: (§2)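 Compounds in a non-phytotoxic solvent with surfactant applied preemergence to seeded pots and, at the same time, postemergence to plants 2–18 cm tall (1- to 4-leaf stage). Paddy tests: pots flooded to 3 cm, compound applied into the water, depth held throughout.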
# lambsquarters = test: Test C pre-/postemergence test; assay type: in vivo, Chenopodium album; conditions: for Plant response rating, Lambsquarters: 31 g ai/ha, scale 0 to 100 (0 no effect, 100 complete control)
# Summary of the method: as §2
# barnyardgrass = test: Test A pre-/postemergence greenhouse test; assay type: in vivo, Echinochloa crus-galli; conditions: for Barnyardgrass plant response rating: 0 to 100 scale; for Plant response rating, Barnyardgrass: 0 to 100 scale where 0 is no effect and 100 is complete control
# Summary of the method: as §1
# corn = test: Test A pre-/postemergence greenhouse test; assay type: in vivo, Zea mays; conditions: for Corn plant response rating: 0 to 100 scale; for Plant response rating, Corn: 0 to 100 scale where 0 is no effect and 100 is complete control
# Summary of the method: as §1
# eastern black nightshade = test: Test C pre-/postemergence test; assay type: in vivo, Solanum ptycanthum; conditions: for Plant response rating, Nightshade: 31 g ai/ha, scale 0 to 100 (0 no effect, 100 complete control)
# Summary of the method: as §2
# Surinam grass = test: Test C pre-/postemergence test; assay type: in vivo, Brachiaria decumbens; conditions: for Plant response rating, Surinam Grass: 31 g ai/ha, scale 0 to 100 (0 no effect, 100 complete control)
# Summary of the method: as §2
# crabgrass = test: Test C pre-/postemergence test; assay type: in vivo, Digitaria sanguinalis; conditions: for Plant response rating, Crabgrass, Large: 31 g ai/ha, scale 0 to 100 (0 no effect, 100 complete control)
# Summary of the method: as §2
# umbrella sedge = test: Test C flooded paddy test; assay type: in vivo, Cyperus difformis; conditions: Flood
# Summary of the method: (§3)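 Ratings were visual and made relative to untreated controls after 13 to 15 greenhouse days.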
# Goosegrass = test: Test C pre-/postemergence test; assay type: in vivo, Eleusin indica; conditions: for Plant response rating, Goosegrass: 31 g ai/ha, scale 0 to 100 (0 no effect, 100 complete control)
# Summary of the method: as §2
# pigweed = test: Test C pre-/postemergence test; assay type: in vivo, Amaranthus retroflexus; conditions: for Plant response rating, Pigweed: 31 g ai/ha, scale 0 to 100 (0 no effect, 100 complete control)
# Summary of the method: as §2
# rice = test: Test C flooded paddy test; assay type: in vivo, Oryza sativa; conditions: Flood
# Summary of the method: as §3
# morningglory = test: Test A pre-/postemergence greenhouse test; assay type: in vivo, Ipomoea spp.; conditions: for Morningglory plant response rating: 0 to 100 scale; for Plant response rating, Morningglory: 0 to 100 scale where 0 is no effect and 100 is complete control
# Summary of the method: as §1
# bermudagrass = test: Test C pre-/postemergence test; assay type: in vivo, Cynodon dactylon; conditions: for Plant response rating, Bermudagrass: 31 g ai/ha
# Summary of the method: as §2
# wheat [2] = test: Test C pre-/postemergence test; assay type: in vivo, Triticum aestivum; conditions: for Plant response rating, Wheat: 31 g ai/ha, scale 0 to 100 (0 no effect, 100 complete control)
# Summary of the method: as §2
# wheat [3] = test: Test A pre-/postemergence greenhouse test; assay type: in vivo, Triticum aestivum; conditions: for Wheat plant response rating: 0 to 100 scale; for Plant response rating, Wheat: 0 to 100 scale where 0 is no effect and 100 is complete control
# Summary of the method: as §1
# [4] = Postemergence, 125 g ai/ha, 0 is no effect, 100 is complete control
# [5] = Postemergence, 500 g ai/ha, 0 is no effect, 100 is complete control
# [6] = Preemergence, 125 g ai/ha, 0 no effect, 100 complete control
# [7] = 62 g ai/ha, Preemergence, scale 0 to 100
# [8] = 125 g ai/ha, preemergence, scale 0 (no effect) to 100 (complete control)
# [9] = preemergence, 250 g ai/ha, scale 0 (no effect) to 100 (complete control)
# [10] = 31 g ai/ha, scale 0 to 100 (0 no effect, 100 complete control)
# [11] = 62 g ai/ha, scale 0 to 100, 0 no effect, 100 complete control, 13 to 15 days
# [12] = 125 g ai/ha, scale 0 to 100, 0 no effect, 100 complete control, 13 to 15 days
# [13] = 250 g ai/ha, scale 0 to 100, 0 no effect, 100 complete control, 13 to 15 days
# [14] = 62 g ai/ha, Preemergence, scale 0 to 100 (0 no effect, 100 complete control)
# [15] = Preemergence, scale 0 to 100 (0 no effect, 100 complete control)
smiles,measurement,setting,value
Cc1cc[n+]([O-])c(S(=O)(=O)C(Cl)c2c(C(F)(F)F)nn(C)c2OCC(F)(F)F)c1 (racemic) [Compound 37],Pigweed plant response rating,redroot pigweed; [4],20
same,Pigweed plant response rating,redroot pigweed; [5],50
same,Pigweed plant response rating,redroot pigweed; [6],100
same,"Plant response rating, Pigweed","redroot pigweed; Preemergence, 500 g ai/ha",100
same,"Foxtail, Giant plant response rating",giant foxtail; [4],30
same,"Foxtail, Giant plant response rating",giant foxtail; [5],80
same,"Foxtail, Giant plant response rating",giant foxtail; [6],90
same,"Plant response rating, Foxtail, Giant","giant foxtail; Preemergence, 500 g ai/ha",100
same,Sunflower plant response rating,[1]; [7],0
same,Sunflower plant response rating,[1]; [8],0
same,"Plant response rating, Sunflower",[1]; Preemergence,0
same,Sunflower plant response rating,[1]; [9],40
same,Lambsquarters plant response rating,lambsquarters; [7],80
same,Lambsquarters plant response rating,lambsquarters; [8],100
same,"Plant response rating, Lambsquarters",lambsquarters; Preemergence,0
same,Lambsquarters plant response rating,lambsquarters; [9],100
same,Barnyardgrass plant response rating,barnyardgrass; [4],30
same,Barnyardgrass plant response rating,barnyardgrass; [5],70
same,Barnyardgrass plant response rating,barnyardgrass; [6],90
same,"Plant response rating, Barnyardgrass","barnyardgrass; Preemergence, 500 g ai/ha",100
same,Corn plant response rating,corn; [4],0
same,Corn plant response rating,corn; [5],40
same,Corn plant response rating,corn; [6],0
same,"Plant response rating, Corn","corn; Preemergence, 500 g ai/ha",30
same,Nightshade plant response rating,eastern black nightshade; [7],80
same,Nightshade plant response rating,eastern black nightshade; [8],85
same,"Plant response rating, Nightshade",eastern black nightshade; Preemergence,80
same,Nightshade plant response rating,eastern black nightshade; [9],90
same,Surinam Grass plant response rating,Surinam grass; [7],100
same,Surinam Grass plant response rating,Surinam grass; [8],100
same,"Plant response rating, Surinam Grass",Surinam grass; Preemergence,50
same,Surinam Grass plant response rating,Surinam grass; [9],100
same,"Crabgrass, Large plant response rating",crabgrass; [7],80
same,"Crabgrass, Large plant response rating",crabgrass; [8],100
same,"Plant response rating, Crabgrass, Large",crabgrass; Preemergence,55
same,"Crabgrass, Large plant response rating",crabgrass; [9],100
same,"Plant response rating, Sedge, Umbrella",umbrella sedge; [10],60
same,"Plant response rating, Sedge, Umbrella",umbrella sedge; [11],85
same,"Plant response rating, Sedge, Umbrella",umbrella sedge; [12],95
same,"Plant response rating, Sedge, Umbrella",umbrella sedge; [13],95
same,Goosegrass plant response rating,Goosegrass; [7],100
same,Goosegrass plant response rating,Goosegrass; [8],100
same,"Plant response rating, Goosegrass",Goosegrass; Preemergence,85
same,Goosegrass plant response rating,Goosegrass; [9],100
same,Pigweed plant response rating,pigweed; [7],100
same,Pigweed plant response rating,pigweed; [8],100
same,"Plant response rating, Pigweed",pigweed; Preemergence,80
same,Pigweed plant response rating,pigweed; [9],100
same,"Plant response rating, Rice",rice; [10],15
same,"Plant response rating, Rice",rice; [11],15
same,"Plant response rating, Rice",rice; [12],25
same,"Plant response rating, Rice",rice; [13],70
same,Morningglory plant response rating,morningglory; [4],0
same,Morningglory plant response rating,morningglory; [5],20
same,Morningglory plant response rating,morningglory; [6],0
same,"Plant response rating, Morningglory","morningglory; Preemergence, 500 g ai/ha",80
same,Bermudagrass plant response rating,bermudagrass; [14],90
same,Bermudagrass plant response rating,bermudagrass; [8],100
same,"Plant response rating, Bermudagrass",bermudagrass; [15],85
same,Bermudagrass plant response rating,bermudagrass; [9],100
same,"Plant response rating, Wheat",wheat [2]; Preemergence,0
same,Wheat plant response rating,wheat [2]; [9],30
same,Wheat plant response rating,wheat [3]; [4],0
same,Wheat plant response rating,wheat [3]; [5],50
same,Wheat plant response rating,wheat [3]; [6],20
same,"Plant response rating, Wheat","wheat [3]; Preemergence, 500 g ai/ha",50
Cc1cc[n+]([O-])c(S(=O)(=O)Cc2c(C(F)(F)F)nn(C)c2OCC(F)(F)F)c1 [Compound 31],Pigweed plant response rating,redroot pigweed; [4],80
same,Pigweed plant response rating,redroot pigweed; [5],80
same,Pigweed plant response rating,redroot pigweed; [6],100
same,"Plant response rating, Pigweed","redroot pigweed; Preemergence, 500 g ai/ha",100
same,"Foxtail, Giant plant response rating",giant foxtail; [4],80
same,"Foxtail, Giant plant response rating",giant foxtail; [5],90
same,"Foxtail, Giant plant response rating",giant foxtail; [6],100
same,"Plant response rating, Foxtail, Giant","giant foxtail; Preemergence, 500 g ai/ha",100
same,Sunflower plant response rating,[1]; [7],20
same,"Plant response rating, Sunflower",[1]; Preemergence,20
same,Lambsquarters plant response rating,lambsquarters; [7],95
same,"Plant response rating, Lambsquarters",lambsquarters; Preemergence,80
same,Barnyardgrass plant response rating,barnyardgrass; [4],70
same,Barnyardgrass plant response rating,barnyardgrass; [5],90
same,Barnyardgrass plant response rating,barnyardgrass; [6],100
same,"Plant response rating, Barnyardgrass","barnyardgrass; Preemergence, 500 g ai/ha",100
same,Corn plant response rating,corn; [4],40
same,Corn plant response rating,corn; [5],40
same,Corn plant response rating,corn; [6],0
same,"Plant response rating, Corn","corn; Preemergence, 500 g ai/ha",50
same,Nightshade plant response rating,eastern black nightshade; [7],95
same,"Plant response rating, Nightshade",eastern black nightshade; Preemergence,95
same,Surinam Grass plant response rating,Surinam grass; [7],100
same,"Plant response rating, Surinam Grass",Surinam grass; Preemergence,85
same,"Crabgrass, Large plant response rating",crabgrass; [7],100
same,"Plant response rating, Crabgrass, Large",crabgrass; Preemergence,100
same,"Plant response rating (0 to 100), Crabgrass, Large","crabgrass; Preemergence, 250 g ai/ha",100
same,"Plant response rating, Sedge, Umbrella",umbrella sedge; [10],65
same,"Plant response rating, Sedge, Umbrella",umbrella sedge; [11],85
same,"Plant response rating, Sedge, Umbrella",umbrella sedge; [12],100
same,"Plant response rating, Sedge, Umbrella",umbrella sedge; [13],100
same,Goosegrass plant response rating,Goosegrass; [7],100
same,"Plant response rating, Goosegrass",Goosegrass; Preemergence,100
same,"Plant response rating (0 to 100), Goosegrass","Goosegrass; Preemergence, 250 g ai/ha",100
same,Pigweed plant response rating,pigweed; [7],100
same,"Plant response rating, Pigweed",pigweed; Preemergence,100
same,"Plant response rating, Rice",rice; [10],0
same,"Plant response rating, Rice",rice; [11],0
same,"Plant response rating, Rice",rice; [12],60
same,"Plant response rating, Rice",rice; [13],70
same,Morningglory plant response rating,morningglory; [4],60
same,Morningglory plant response rating,morningglory; [5],80
same,Morningglory plant response rating,morningglory; [6],90
same,"Plant response rating, Morningglory","morningglory; Preemergence, 500 g ai/ha",100
same,Bermudagrass plant response rating,bermudagrass; [14],100
same,"Plant response rating, Bermudagrass",bermudagrass; [15],100
same,"Plant response rating (0 to 100), Bermudagrass","bermudagrass; Preemergence, 250 g ai/ha",100
same,Bermudagrass plant response rating,"bermudagrass; preemergence, 125 g ai/ha, scale 0 (no effect) to 100 (complete control)",100
same,Wheat plant response rating,wheat [2]; [7],30
same,"Plant response rating, Wheat",wheat [2]; Preemergence,0
same,Wheat plant response rating,wheat [3]; [4],50
same,Wheat plant response rating,wheat [3]; [5],60
same,Wheat plant response rating,wheat [3]; [6],60
same,"Plant response rating, Wheat","wheat [3]; Preemergence, 500 g ai/ha",80

# Reference: patent publication US20100298141A1, “SUBSTITUTED PYRIDINE N-OXIDE HERBICIDES” (E. I. DU PONT DE NEMOURS AND COMPANY, priority 2007, published 2010)
